Data: patent publication US8846656B2, “Tetrahydropyrido-pyridine and tetrahydropyrido-pyrimidine compounds and use thereof as C5a receptor modulators” (Novartis AG, priority 2011, dated 2014)

Key:
CD11b = assay: Human whole blood CD11b up-regulation assay; type: cell-based; details: Homo sapiens, 2 nM human C5a, CD15+ granulocytes, read-out: hCD11b IC50
Experimental: Whole blood was collected in sodium heparin tubes and the assay started within 2 hours of the blood draw. The blood was incubated with compounds in 1% DMSO (dimethyl sulfoxide) at room temperature for 10 minutes with gentle rocking. 2 nM of human C5a was then added for 15 minutes at room temperature with gentle rocking. Following the C5a incubation period cells were washed once with cold FACS (fluorescence-activated cell sorting) buffer (phosphate buffered saline+0.5% bovine serum albumin) FITC (fluorescein isothiocyanate) mouse anti-human CD15 and PE-Cy5 (phycoerythrin-cyanine 5) mouse anti-human CD11b antibodies (Becton Dickinson) were gently mixed with the cells and allowed to incubate for 30 minutes on ice protected from the light. Cells were then washed three times with cold FACS buffer. Red blood cells (RBC) were lysed by incubating with BD FACS lysis buffer (Becton Dickinson) for 10 minutes at room temperature. Cells were pelleted and the lysing procedure was repeated until all RBCs were lysed. The remaining leukocytes were resuspended in BD lysis buffer. Samples were acquired on the LSR^11 flow cytometer and 10,000 events of the CD15+ granulocyte population were collected. The CD11b median fluorescence intensity of the CD 15+ cell population was evaluated using FACSDiva software (Becton Dickinson).

human C5aR = human C5aR (Homo sapiens (Human), UniProt P21730); assay: FLIPR assay: inhibition of C5a-mediated calcium mobilization; type: cell-based; details: stable cell line over expressing human C5aR & Gα15, human C5a at EC50 (0.1-0.25 nM)
Chain of human C5aR (P21730 whole entry): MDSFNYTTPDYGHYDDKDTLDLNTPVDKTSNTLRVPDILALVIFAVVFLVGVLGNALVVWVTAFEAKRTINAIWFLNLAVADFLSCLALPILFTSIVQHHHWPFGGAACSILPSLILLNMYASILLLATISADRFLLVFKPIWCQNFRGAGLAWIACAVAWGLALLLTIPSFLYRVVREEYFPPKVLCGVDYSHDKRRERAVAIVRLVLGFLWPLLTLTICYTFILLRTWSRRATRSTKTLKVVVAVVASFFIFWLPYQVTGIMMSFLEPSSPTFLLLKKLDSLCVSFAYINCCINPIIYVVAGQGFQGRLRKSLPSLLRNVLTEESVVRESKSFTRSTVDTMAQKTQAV
Experimental: Compounds were tested for their ability to inhibit C5a-mediated calcium mobilization using a stable cell line over expressing the human C5aR & the Gα15 protein on the FLIPR (Fluorescent Imaging Plate Reader) Tetra system. Cells were maintained in culture media containing DMEM (Dulbecco's Modified Eagle Medium) with 4.5 g/L glucose, 10% fetal bovine serum, 100 U/mL, 1× non-essential amino acid, and 250 μg/mL G418 (Geneticin). Prior to testing of compounds, cells were plated at 10,000 cells/well in clear bottom 384-well black plate, and incubated overnight at 37° C. with 5% CO2. On the day of experiment, culture media was removed, and replaced with assay buffer HBSS (Hanks' Balanced Salt Solution) with 20 mM HEPES (4-(2-hydroxyethyl)-1-piperazineethanesulfonic acid) and 0.1% BSA (bovine serum albumin) BSA containing calcium 5 dye (Molecular Devices) and 2.5 mM probenecid. After 1 hour incubation at 37° C., 5% CO2 for 60 min, cells were pre-incubated with compounds for 30 minutes at room temperature, in 1% DMSO (dimethyl sulfoxide).

Compound	IC50 (CD11b)	IC50 (human C5aR)
Cc1ccc(C(C)C)cc1N1CCc2nc(-c3cccc4[nH]cc(C)c34)nc(N3C[C@H](C)N(CC(N)=O)C[C@H]3C)c2C1 (racemic) [Example 28-D, Racemic-2-(4-(6-(5-Isopropyl-2-methylphenyl)-2-(3-methyl-1H-indol-4-yl)-5,6,7,8-tetrahydropyrido[4,3-d]pyrimidin-4-yl)-(trans)-2,5-dimethylpiperazin-1-yl)acetamide]	0.058 µM	0.004 µM
COC1CCN(c2nc(-c3c(C)cccc3C)nc3c2CN([C@@H](C)c2ccccc2)CC3)CC1(C)C (mixture of isomers) [Example 33-C, (±)-2-(2,6-Dimethylphenyl)-4-(4-methoxy-3,3-dimethylpiperidin-1-yl)-6-((S)-1-phenylethyl)-5,6,7,8-tetrahydropyrido[4,3-d]pyrimidine]	0.238 µM	0.079 µM
Cc1ccc2[nH]nc(C)c2c1-c1nc2c(c(N3C[C@@H](O)[C@@H]3C)n1)CN(c1c(Cl)c(C3CC3)nn1C)CC2 (racemic) [Example 69-H, (trans)-1-(6-(4-chloro-3-cyclopropyl-1-methyl-1H-pyrazol-5-yl)-2-(3,5-dimethyl-1H-indazol-4-yl)-5,6,7,8-tetrahydropyrido[4,3-d]pyrimidin-4-yl)-2-methylazetidin-3-ol]	0.196 µM	0.004 µM
CO[C@@H]1CN(c2nc(-c3c(C)ccc4[nH]nc(C)c34)nc3c2CN(c2c(Cl)c(C4CC4)nn2C)CC3)[C@H]1C (racemic) [Example 69-I, 6-(4-chloro-3-cyclopropyl-1-methyl-1H-pyrazol-5-yl)-2-(3,5-dimethyl-1H-indazol-4-yl)-4-((trans)-methoxy-2-methylazetidin-1-yl)-5,6,7,8-tetrahydropyrido[4,3-d]pyrimidine]	0.025 µM	0.004 µM
Cc1ccc2[nH]nc(C)c2c1-c1nc2c(c(N3CC[C@H]4OC[C@H]4C3)n1)CN(c1c(Cl)c(C3CC3)nn1C)CC2 (racemic) [Example 69-M, (cis)-3-(6-(4-chloro-3-cyclopropyl-1-methyl-1H-pyrazol-5-yl)-2-(3,5-dimethyl-1H-indazol-4-yl)-5,6,7,8-tetrahydropyrido[4,3-d]pyrimidin-4-yl)-7-oxa-3-azabicyclo[4.2.0]octane]	0.045 µM	0.008 µM
CO[C@H]1CN(c2nc(-c3c(C)ccc4[nH]nc(C)c34)nc3c2CN(c2cc(C(C)C)ccc2C)CC3)C[C@@H]1N(C)C (single isomer, unassigned) [Example 65-H, (trans)-1-(2-(3,5-dimethyl-1H-indazol-4-yl)-6-(5-isopropyl-2-methylphenyl)-5,6,7,8-tetrahydropyrido[4,3-d]pyrimidin-4-yl)-4-methoxy-N,N-dimethylpyrrolidin-3-amine]	0.056 µM	0.004 µM
Cc1ccc(C(C)C)cc1N1CCc2nc(-c3c(C)ccc4[nH]nc(C)c34)nc(N3CCC3C)c2C1 (single isomer, unassigned) [Example 65-I, 2-(3,5-dimethyl-1H-indazol-4-yl)-6-(5-isopropyl-2-methylphenyl)-4-(2-methylazetidin-1-yl)-5,6,7,8-tetrahydropyrido[4,3-d]pyrimidine]	0.019 µM	0.001 µM
COC1CCN(c2nc(-c3cccc4[nH]cc(C)c34)nc3c2CN(c2cc(C(C)C)ccc2C)CC3)[C@H](C)C1 (stereo in doubt) [Example 17-R, 6-(5-isopropyl-2-methylphenyl)-4-((2R,4S)-4-methoxy-2-methylpiperidin-1-yl)-2-(3-methyl-1H-indol-4-yl)-5,6,7,8-tetrahydropyrido[4,3-d]pyrimidine]	0.042 µM	0.01 µM
Cc1cc(N2CCc3nc(-c4c(C)cccc4C)nc(N4CCCC(C)(C)C4)c3C2)n(C)n1 [Example 16-O, 6-(1,3-dimethyl-1H-pyrazol-5-yl)-2-(2,6-dimethylphenyl)-4-(3,3-dimethylpiperidin-1-yl)-5,6,7,8-tetrahydropyrido[4,3-d]pyrimidine]	2.25 µM	0.09 µM
Cc1ccc(C(C)C)cc1N1CCc2nc(-c3cccc4[nH]cc(C)c34)nc(N3CC(O)C3)c2C1 [Example 17-AP, 1-(6-(5-isopropyl-2-methylphenyl)-2-(3-methyl-1H-indol-4-yl)-5,6,7,8-tetrahydropyrido[4,3-d]pyrimidin-4-yl)azetidin-3-ol]	0.513 µM	0.01 µM
CO[C@H]1C[C@H]2CC[C@@H](C1)N2c1nc(-c2cccc3[nH]cc(C)c23)nc2c1CN(c1cc(C(C)C)ccc1C)CC2 [Example 17-AS, 6-(5-isopropyl-2-methylphenyl)-4-((3-endo)-3-methoxy-8-azabicyclo[3.2.1]octan-8-yl)-2-(3-methyl-1H-indol-4-yl)-5,6,7,8-tetrahydropyrido[4,3-d]pyrimidine]	0.067 µM	0.046 µM
CO[C@H]1CCN(c2nc(-c3cccc4[nH]cc(C)c34)nc3c2CN(c2cc(C(C)C)ccc2C)CC3)C[C@@H]1C [Example 17-AY, 6-(5-isopropyl-2-methylphenyl)-4-((3S,4S)-4-methoxy-3-methylpiperidin-1-yl)-2-(3-methyl-1H-indol-4-yl)-5,6,7,8-tetrahydropyrido[4,3-d]pyrimidine]	0.045 µM	0.009 µM
CO[C@@H]1CCN(c2nc(-c3cccc4[nH]cc(C)c34)nc3c2CN(c2cc(Cl)ccc2C)CC3)CC1(C)C [Example 17-BK, (R)-6-(5-chloro-2-methylphenyl)-4-(4-methoxy-3,3-dimethylpiperidin-1-yl)-2-(3-methyl-1H-indol-4-yl)-5,6,7,8-tetrahydropyrido[4,3-d]pyrimidine]	0.04 µM	0.163 µM
CO[C@H]1CCN(c2nc(-c3cccc4[nH]cc(C)c34)nc3c2CN(c2cc(C(C)C)ccc2C)CC3)CC1(C)C [Example 17-G, (S)-6-(5-Isopropyl-2-methylphenyl)-4-(4-methoxy-3,3-dimethylpiperidin-1-yl)-2-(3-methyl-1H-indol-4-yl)-5,6,7,8-tetrahydropyrido[4,3-d]pyrimidine]	0.114 µM	0.004 µM
Cc1ccccc1N1CCc2nc(-c3c(C)cccc3C)nc(N(C)CC(C)(C)O)c2C1 [Example 17-H, 1-((2-(2,6-Dimethylphenyl)-6-(o-tolyl)-5,6,7,8-tetrahydropyrido[4,3-d]pyrimidin-4-yl)(methyl)amino)-2-methylpropan-2-ol]	0.3 µM	0.01 µM
CO[C@H]1CCN(c2nc(-c3cccc4[nH]cc(C)c34)nc3c2CN(c2cc(C(C)C)ccc2C)CC3)[C@H](C)C1 [Example 17-P, 6-(5-isopropyl-2-methylphenyl)-4-((2R,4S)-4-methoxy-2-methylpiperidin-1-yl)-2-(3-methyl-1H-indol-4-yl)-5,6,7,8-tetrahydropyrido[4,3-d]pyrimidine]	0.07 µM	0.013 µM
Cc1ccccc1N1CCc2nc(-c3c(C)cccc3C)nc(N(C)C)c2C1 [Example 17-T, 2-(2,6-dimethylphenyl)-N,N-dimethyl-6-(o-tolyl)-5,6,7,8-tetrahydropyrido[4,3-d]pyrimidin-4-amine]	0.451 µM	0.054 µM
CO[C@H]1CCN(c2nc(-c3c(C)cccc3C)nc3c2CN(c2cc(C(F)(F)F)ccc2C)CC3)CC1(C)C [Example 19-AB, (S)-2-(2,6-dimethylphenyl)-4-(4-methoxy-3,3-dimethylpiperidin-1-yl)-6-(2-methyl-5-(trifluoromethyl)phenyl)-5,6,7,8-tetrahydropyrido[4,3-d]pyrimidine]	0.026 µM	0.017 µM
